This is an account of results in patent US7618990B2, “Oxazolidone derivatives as PR modulators” (Wyeth, priority 2006, dated 2009).

Data set [1] has as its system alkaline phosphatase activity in T47D cells. As to the kind of experiment: Effects of progestins and antiprogestins on alkaline phosphatase activity in T47D cells (antagonist mode). In kind it is cell-based. Particulars: Homo sapiens, in the presence of 1 nM progesterone, read-out: T47D Alkaline Phosphatase Activity IC50 (nM) or % inhibition; for inhibition at 3 µM: % inhibition at 3000 nM; for IC50: 24 h. How it is done:
(1) Effects of Progestins and Antiprogestins on Alkaline Phosphatase Activity in T47D Cells
PURPOSE: To identify progestins or antiprogestins by determining a compound's effect on alkaline phosphatase activity in T47D cells.
Culture Medium: • DMEM:F12 (1:1) (GIBCO, BRL) supplemented with 5% (v/v) charcoal stripped fetal bovine serum (not heat-inactivated), 100 U/mL penicillin, 100 μg/mL streptomycin, and 2 mM the GlutaMax™ reagent (GIBCO, BRL).
Alkaline Phosphatase Assay Buffer: • I. 0.1M Tris-HCl, pH 9.8, containing 0.2% the Triton® X-100 reagent • II. 0.1M Tris-HCl, pH 9.8, containing 4 mM p-nitrophenyl phosphate (Sigma). B. Cell Culture and Treatment:
Frozen T47D cells were thawed in a 37° C. water bath and diluted to 280,000 cells/mL in culture medium. To each well in a 96-well plate (Falcon, Becton Dickinson Labware), 180 μL of diluted cell suspension was added.
Twenty μL of reference or test compounds diluted in the culture medium was then added to each well. When testing for progestin antagonist activity, reference antiprogestins or test compounds were added in the presence of 1 nM progesterone. The cells were incubated at 37° C. in a 5% CO2/humidified atmosphere for 24 h.
NOTE: For high throughput screening, one concentration of each compound was tested at 0.3 μg/mL. Based on an average molecular weight of 300 g/mol for the compounds in the library, the concentration was approximately 1 μM. Subsequently, active compounds were tested in dose response assays to determine EC50 and IC50. C. Alkaline Phosphatase Enzyme Assay:
At the end of treatment, the medium was removed from the plate. Fifty μL of assay buffer I was added to each well. The plates were shaken in a titer plate shaker for 15 min. Then 150 μL of assay buffer II was added to each well. Optical density measurements were taken at 5 min intervals for 30 min at a test wavelength of 405 nm.
For reference and test compounds, a dose response curve was generated for dose (X-axis) vs. the rate of enzyme reaction (slope) (Y-axis). Square root-transformed data was used for analysis of variance and nonlinear dose response curve fitting for both agonist and antagonist modes. Huber weighting was used to down-weight the effects of outliers. EC50 or IC50 values were calculated from the retransformed values. JMP software (SAS Institute, Inc.) was used for both one-way analysis of variance and non-linear dose response analysis in both single dose and dose response studies.
Progesterone and trimegestone were reference progestins and RU486 was the reference antiprogestin. All reference compounds were run in full dose response curves and the EC50 and IC50 values were calculated.

A word on the inhibition: it is the relative decrease from the control value, in per cent. As usually defined, the melting point is the temperature, or range, at which the solid turns liquid. One may read the IC50 as the concentration that inhibits the measured activity by half.

Regarding `CCCCC1COC(=O)N1c1nc(-c2ccc(Br)cc2)cs1` (stereo not shown) [Example 30, 3-[4-(4-Bromophenyl)-1,3-thiazol-2-yl]-4-butyl-1,3-oxazolidin-2-one], the melting point is 153 to 155 °C. Further, the inhibition at 3 µM in data set [1] was determined as 100%.

As for `CC1(C)COC(=O)N1c1nc(-c2sc(C#N)cc2Br)cs1` [Example 59, 4-Bromo-5-[2-(4,4-dimethyl-2-oxo-1,3-oxazolidin-3-yl)-1,3-thiazol-4-yl]thiophene-2-carbonitrile], the melting point is 230 to 234 °C. In addition, the half-inhibitory concentration (IC50) in data set [1] stood at 99 nM.

Regarding `CC[C@H]1COC(=O)N1c1nc(-c2ccc(Br)cc2)c(F)s1` [Example 11, (4S)-3-[4-(4-Bromophenyl)-5-fluoro-1,3-thiazol-2-yl]-4-ethyl-1,3-oxazolidin-2-one], the melting point was in the range of 105 to 107 °C. Moreover, in data set [1], the IC50 came to 120 nM.

Compound `CCC[C@@H]1COC(=O)N1c1nc(-c2ccc(Br)cc2)cs1` [Example 20, (4R)-3-[4-(4-Bromophenyl)-1,3-thiazol-2-yl]-4-propyl-1,3-oxazolidin-2-one] returned a melting point of 114 to 116 °C. Besides, the IC50 in data set [1] is 70.2 nM.

`CC[C@H]1COC(=O)N1c1nc(-c2ccc(C#N)cc2)c(Cl)s1` [Example 14, 4-{5-Chloro-2-[(4S)-4-ethyl-2-oxo-1,3-oxazolidin-3-yl]-1,3-thiazol-4-yl}benzonitrile] yielded a melting point of 157 to 159 °C. Further, the IC50 in data set [1] came out at 294 nM.

As for `CC1CN(c2nc(-c3ccc(Br)cc3)cs2)C(=O)O1` (stereo not shown) [Example 31, 3-[4-(4-Bromophenyl)-1,3-thiazol-2-yl]-5-methyl-1,3-oxazolidin-2-one], the melting point fell in the range of 191 to 193 °C. The IC50 in data set [1] is 68.8 nM.

`O=C1OCCN1c1nc(-c2ccc(Br)cc2)cs1` [Example 28, 3-[4-(4-Bromophenyl)-1,3-thiazol-2-yl]-1,3-oxazolidin-2-one] yielded a melting point of 197 to 199 °C. Also, the IC50 in data set [1] is 158 nM.

In turn, `CC1(C)COC(=O)N1c1nc(-c2cccc(Br)c2)cs1` [Example 18, 3-[4-(3-Bromophenyl)-1,3-thiazol-2-yl]-4,4-dimethyl-1,3-oxazolidin-2-one] gave a melting point of 142 to 144 °C. The IC50 in data set [1] was found to be 30 nM.

`C[C@@H]1COC(=O)N1c1nc(-c2cccc(Br)c2)cs1` [Example 16, (4R)-3-[4-(3-bromophenyl)-1,3-thiazol-2-yl]-4-methyl-1,3-oxazolidin-2-one] had a melting point of 126 to 128 °C. Moreover, the IC50 in data set [1] was determined as 142 nM.

With `CC1(C)COC(=O)N1c1nc(-c2ccccc2[N+](=O)[O-])cs1` [Example 123, 4,4-Dimethyl-3-[4-(2-nitrophenyl)-1,3-thiazol-2-yl]-1,3-oxazolidin-2-one], the IC50 in data set [1] was determined as 1420 nM.

With `CC(=O)/N=C1\OCC(C)(C)N1c1nc(-c2ccc(C#N)cc2)cs1` [Example 137, N-{(2Z)-3-[4-(4-Cyanophenyl)-1,3-thiazol-2-yl]-4,4-dimethyl-1,3-oxazolidin-2-ylidene}acetamide], the IC50 in data set [1] stood at 10.8 nM.

In the case of `Cc1ccc(-c2csc(N3C(=O)OCC3(C)C)n2)cc1` [Example 121, 4,4-Dimethyl-3-[4-(4-methylphenyl)-1,3-thiazol-2-yl]-1,3-oxazolidin-2-one], in data set [1], the IC50 was found to be 110 nM.

For `CC1(C)COC(=O)N1c1nc(-c2cc(Cl)cc(Cl)c2)cs1` [Example 116, 3-[4-(3,5-Dichlorophenyl)-1,3-thiazol-2-yl]-4,4-dimethyl-1,3-oxazolidin-2-one], the IC50 in data set [1] worked out at 461 nM.

Regarding `CC1(C)COC(=O)N1c1nc(-c2ccc(Cl)c(Cl)c2)cs1` [Example 119, 3-[4-(3,4-Dichlorophenyl)-1,3-thiazol-2-yl]-4,4-dimethyl-1,3-oxazolidin-2-one], the IC50 in data set [1] came to 48 nM.

As for `CC1(C)COC(=O)N1c1nc(-c2ccc(Cl)c(F)c2)cs1` [Example 109, 3-[4-(4-Chloro-3-fluorophenyl)-1,3-thiazol-2-yl]-4,4-dimethyl-1,3-oxazolidin-2-one], in data set [1], the IC50 came to 28.8 nM.

Take `CC1(C)COC(=O)N1c1nc(-c2ccc(C#N)cc2)co1` [Example 92, 4-[2-(4,4-dimethyl-2-oxo-1,3-oxazolidin-3-yl)-1,3-oxazol-4-yl]benzonitrile]: the inhibition at 3 µM in data set [1] was determined as 76%.

On to `CC1(C)COC(=S)N1c1nc(-c2ccc(C#N)cc2)cs1` [Example 82, 4-[2-(4,4-Dimethyl-2-thioxo-1,3-oxazolidin-3-yl)-1,3-thiazol-4-yl]benzonitrile], for which the IC50 in data set [1] worked out at 6.4 nM.

Turning to `CC1(C)COC(=O)N1c1nc(-c2ccc(C(F)(F)F)cc2)cs1` [Example 95, 4,4-Dimethyl-3-{4-[4-(trifluoromethyl)phenyl]-1,3-thiazol-2-yl}-1,3-oxazolidin-2-one], in data set [1], the IC50 was determined as 108 nM.

Turning to `COc1ccccc1-c1csc(N2C(=O)OCC2(C)C)n1` [Example 100, 3-[4-(2-Methoxyphenyl)-1,3-thiazol-2-yl]-4,4-dimethyl-1,3-oxazolidin-2-one], in data set [1], the IC50 is 854 nM.

For the compound `CC1(C)CO/C(=N\C#N)N1c1nc(-c2ccc(C#N)cc2)cs1` [Example 135, {(2Z)-3-[4-(4-cyanophenyl)-1,3-thiazol-2-yl]-4,4-dimethyl-1,3-oxazolidin-2-ylidene}cyanamide], in data set [1], the IC50 is 64.4 nM.

`CC1(C)COC(=O)N1c1nc(-c2cccc([N+](=O)[O-])c2)cs1` [Example 124, 4,4-Dimethyl-3-[4-(3-nitrophenyl)-1,3-thiazol-2-yl]-1,3-oxazolidin-2-one]: in data set [1], the IC50 stood at 59.7 nM.

Consider `CCC1(CC)COC(=O)N1c1nc2c(s1)CCc1cc(C#N)ccc1-2` [Example 86, 2-(4,4-Diethyl-2-oxo-1,3-oxazolidin-3-yl)-4,5-dihydronaphtho[1,2-d][1,3]thiazole-7-carbonitrile], for which the IC50 in data set [1] stood at 5 nM.

As for `CC1(C)COC(=O)N1c1nc(-c2ccc3ccccc3c2)cs1` [Example 122, 4,4-Dimethyl-3-[4-(2-naphthyl)-1,3-thiazol-2-yl]-1,3-oxazolidin-2-one], in data set [1], the IC50 is 557 nM.

Consider `CC1(C)COC(=O)N1c1nc(-c2ccc(C(N)=NO)cc2)cs1` [Example 85, 4-[2-(4,4-Dimethyl-2-oxo-1,3-oxazolidin-3-yl)-1,3-thiazol-4-yl]-N′-hydroxybenzene carboximidamide], for which the IC50 in data set [1] is 729 nM.

`CC1(C)COC(=O)N1c1nc(-c2ccc(Cl)cc2)cs1` [Example 114, 3-[4-(4-Chlorophenyl)-1,3-thiazol-2-yl]-4,4-dimethyl-1,3-oxazolidin-2-one]: in data set [1] (% inhibition at 30 nM), the inhibition at 0.03 µM came to 53%.

Turning to `Cn1cc(C#N)cc1-c1csc(N2C(=O)OCC2(C)C)n1` [Example 134, 5-[2-(4,4-Dimethyl-2-oxo-1,3-oxazolidin-3-yl)-1,3-thiazol-4-yl]-1-methyl-1H-pyrrole-3-carbonitrile], the IC50 in data set [1] was 284 nM.

For `CC1(C)COC(=O)N1c1nc(-c2ccc(Oc3ccccc3)cc2)cs1` [Example 127, 4,4-Dimethyl-3-[4-(4-phenoxyphenyl)-1,3-thiazol-2-yl]-1,3-oxazolidin-2-one], in data set [1], the inhibition at 3 µM came out at 87%.

As to `COc1ccc(-c2csc(N3C(=O)OCC3(C)C)n2)cc1OC` [Example 108, 3-[4-(3,4-Dimethoxyphenyl)-1,3-thiazol-2-yl]-4,4-dimethyl-1,3-oxazolidin-2-one], the IC50 in data set [1] was determined as 823 nM.
